Key:
Cytotoxicity, alamarBlue = type: cell-based; settings: mouse, RAW 264.7 macrophage cells, read-out: CC50^72 h cytotoxicity (macrophage / mammalian cells)
Experimental: Leishmania amazonensis axenic amastigotes (100 μL, 2×10^6 cells/mL) were added to 96-multiwell plates containing 100 μL of amastigote culture medium with an appropriate compound dilution series. 0.1% DMSO (no drug) served as a positive control (100%), and 5 μM amphotericin B served as a negative growth control (0%). Only internal wells were used to minimize edge effects from evaporation. Axenic amastigotes were incubated at 32° C. with a compound/drug for 72 h prior to measurement. Similarly, the cytotoxicity of each compound was determined against RAW 264.7 cells and HepG2 cell lines, following 72 h incubation at 37° C. (promastigotes at 26° C.).
10% alamarBlue® (Thermo Fisher Scientific) was used to measure the growth of both parasite and mammalian cells. Conversion from a blue oxidized state to a pink reduced state was assessed visually at 6 hr. The fluorescence signal was measured with a BioTek Synergy H1 plate reader (530 nm excitation, 570 nm emission). For bioluminescence assays using L. amazonensisluc, relative luminescence units (RLU) were measured using Britelite Plus (PerkinElmer, USA). Luminescence produced by this luciferase reaction is proportional to the amount of luciferase-expressing, viable L. amazonensisluc. Following five-minute incubation at room temperature, the luminescence was measured with a BioTek Synergy H1 plate reader. […]

[1] = test system: intracellular L. amazonensis amastigotes; assay: Intracellular washout assay (LD50); type: cell-based, Leishmania amazonensis
Experimental: Intracellular LD50s were measured. Briefly, RAW 264.7 cells were seeded to 96-multiwell plates at a density of 2×10^5 cells/mL (200 μL) and starved overnight at 37° C. The cells were infected with metacyclic promastigotes at a Multiplicity of Infection (MOI) of 15 and incubated for another 24 h at 37° C. The plates containing infected RAW 264.7 cells/BM primary M #s were washed five times with serum-free DMEM. Serially diluted compounds were added, and plates were incubated at 37° C. for 72 hrs. Wells were washed five times with DMEM, and the RAW 264.7 cells were lysed with 100 μL of 2 mg/mL saponin in DMEM for 5 min at room temperature, and further lysis was stopped with 100% FBS. After centrifugation, 200 μL acidic promastigotes media was replaced, plates were incubated at 26° C. for 96 h. Fluorescence intensity (alamarBlue®) was measured as described above.
All routine in vitro quantification of antileishmanial drug potency is quantification of “cytostatic” potency. […] Therefore, the cytocidal action of MMV676477 was quantified by obtaining an LD50 at 72 h (a Lethal Dose that kills 50% of the bulk population of the parasites relative to untreated control) and compared it to the known cytocidal drug amphotericin. An intracellular washout assay was employed. […] The ratio of LD50:EC50 was calculated for MMV676477 and amphotericin. Lower ratios indicate that the LD50 is similar to the EC50 value, meaning that the estimated EC50 values represent killing of the parasites rather than simple growth inhibition.

[2] = target: purified L. tarentolae tubulin (Leishmania tarentolae, UniProt A0A640KCM0+A0A640KQN0); assay: Tubulin polymerization turbidity assay, Leishmania tubulin; type: biochemical
Experimental: L. tarentolae (Parrot strain from ATCC) tubulin was purified. Briefly, promastigotes of L. tarentolae were grown to a high density (˜1×10^8 cells/mL), harvested, and resuspended in PME+P buffer containing 100 mM piperazine N, N′-bis (2-ethanesulfonic acid) (PIPES) buffer (pH 6.9), 1 mM glycol ether diamine tetraacetic acid (EGTA), 1 mM MgCl2, 1 mM benzamidine, 0.5 mM phenylmethylsulfonyl fluoride, 25 μg/ml leupeptin. The resulting suspension was extensively sonicated on ice with a probe sonicator (Misonix), cooled on ice for 30 minutes and centrifuged at 40,000×g for 1 hour at 4° C. using an ultracentrifuge (Beckman, Fullerton, CA). The resulting supernatant was filtered through a glass wool or 0.45-micron filter before loading into an equilibrated DEAE-Sepharose Fast Flow matrix (Amersham Biosciences). The column was washed with two column volumes of PME+P and subsequently four column volumes PME+P containing 0.1 M KCl and 0.25 M glutamate (pH 6.9). Tubulin was eluted with two column volumes PME+P containing 0.3 M KCl and 0.75 M glutamate (pH 6.9), and tubulin-rich fractions were confirmed by tubulin polymerization assays. The assembly-competent tubulin was pooled together and diluted into 1×PME buffer, 2 mM GTP, 10 mM MgCl2 and 8% DMSO (v/v). Tubulin was incubated in this buffer for 45 minutes at 30° C. to promote assembly, centrifuged at 50,000×g at 30° C. for 30 min, and re-suspended in 1 mL of ice-cold PME. […] Purity was assessed by SDS-PAGE and Coomassie Blue.
Tubulin polymerization assays were performed in 96-well half-area microplates (Costar) in a final volume of 100 μL. […] The absorbance at 340 nm was recorded in a Synergy H1 microplate reader (BioTek) for up to 45 min at 37° C. […]
To determine whether MMV676477 directly regulates microtubule assembly, assembly-competent tubulin from Leishmania tarentolae was purified and analyzed (FIG. 5A). […] 3 mg/mL purified L. tarentolae tubulin (3 mg/mL) was treated with serial dilutions of MMV676477 while the absorbance was measured at 340 nm over time.

SMILES: CCc1c(C)nc(-n2nc(C)cc2NC(=O)c2ccccc2SC)[nH]c1=O [MMV676477, N-(1-(5-Ethyl-4-methyl-6-oxo-1,6-dihydropyrimidin-2-yl)-3-methyl-1H-pyrazol-5-yl)-2-(methylthio)benzamide]
- CC50 at 72 h (Cytotoxicity, alamarBlue): 2.2 µM
- LD50/EC50 ratio ([1]; intracellular amastigotes): 1.2
- LD50 72 h ([1]; intracellular washout, 72 h): 620 nM
- EC50 [2]: 0.5 µM
- selectivity for purified Leishmania tubulin over mammalian tubulin ([2]; 0.5 vs 11 μM EC50): 20 fold
